From publication PMC12650144, “Interactive Role of the DHPR β1a SH3 Domain in Skeletal Muscle Excitation–Contraction Coupling” (Biomolecules, 2025)
Where no end group is shown, it is not given here.

Assays:
[1] = biological target: T1, DHPR β1a subunit (full-length, β1a-FL) (Mus musculus, UniProt Q8R3Z5); test: Tryptophan fluorescence quenching binding to full-length β1a; conditions: excitation 280 nm, emission 340 nm, full-length β1a titrated with loop/peptide, nonlinear regression, read-out: Binding affinity to β1a subunit (Kd)
T1 construct: full-length β1a (β1a-FL); polyhistidine-tagged ubiquitin (N, cleaved yes); made in house; host or cells: Escherichia coli BL21
T1 sequence (Q8R3Z5 1-524 isoform Q8R3Z5-4): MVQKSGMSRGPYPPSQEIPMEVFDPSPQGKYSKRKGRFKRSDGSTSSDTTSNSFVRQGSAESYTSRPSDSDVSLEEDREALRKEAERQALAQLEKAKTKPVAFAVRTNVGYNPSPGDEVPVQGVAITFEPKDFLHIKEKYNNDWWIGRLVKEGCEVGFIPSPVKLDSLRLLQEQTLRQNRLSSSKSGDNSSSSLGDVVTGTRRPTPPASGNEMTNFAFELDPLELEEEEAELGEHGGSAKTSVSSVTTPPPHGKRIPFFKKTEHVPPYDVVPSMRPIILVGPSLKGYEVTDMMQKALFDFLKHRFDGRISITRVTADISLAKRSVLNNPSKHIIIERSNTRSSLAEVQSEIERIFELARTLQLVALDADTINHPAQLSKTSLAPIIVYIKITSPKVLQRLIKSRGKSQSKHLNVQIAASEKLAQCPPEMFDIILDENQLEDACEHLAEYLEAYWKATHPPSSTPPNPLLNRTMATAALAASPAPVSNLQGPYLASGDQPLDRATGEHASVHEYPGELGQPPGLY
Description: (§1) The mouse β1a and β2a subunits (NCBI reference sequences—NM_031173 and NM_023116), the β1a-SH3 domain (β1a residues V101-P272), and the α1s II-III loop (NCBI reference sequence—X05921, residues E666-L791) were amplified by PCR. Each PCR product was cloned in-frame downstream of a polyhistidine-tagged ubiquitin sequence in the plasmid pHUE [27]. The plasmids were transferred into Escherichia coli BL21, and expression of fusion protein was induced by addition of 0.1 mM IPTG (isopropyl β-D-1thiogalactoside) to the culture medium. The His-tagged proteins were purified by chromatography on Ni-agarose. Ubiquitin was removed from the N-terminal end of the recombinant proteins by digestion with a His-tagged ubiquitin-dependant protease. The recombinant β-subunit proteins and the II-III loop were further purified by preparative electrophoresis using a Bio-Rad model 491 prep cell. The final samples were dialysed into a buffer containing 50 mM sodium phosphate pH 8 and 300 mM NaCl (buffer A) and stored at −70 °C.
(§2) Equilibrium dissociation constants for β1a and β2a subunit and β1a-SH3 domain binding to the α1s II-III loop and its peptides were determined with a Perkin-Elmer LS 50B6 Spectrofluorimeter. Changes in the intrinsic fluorescence of the tryptophan residues of the β1a subunit or the β1a-SH3 domain was monitored while titrating the α1s II-III loop or its peptides. Excitation was at 280 nm, and fluorescence emission was monitored at 340 nm. Data was corrected for dilution effects and for intrinsic fluorescence of the II-III loop or its peptides and fitted with nonlinear regression using GraphPad Prism software (6.0), as previously described.

[2] = biological target: T2, β1a-SH3 domain (residues 101–272) (Mus musculus, UniProt Q8R3Z5); test: Tryptophan fluorescence quenching binding to β1a SH3 domain; conditions: excitation 280 nm, emission 340 nm, refolded β1a-SH3, read-out: Binding affinity to β1a–SH3 domain (residues 101–272) (Kd)
T2 construct: The β1a SH3 protein (residues V101-P272) was purified by IMAC; polyhistidine-tagged ubiquitin (N, cleaved yes); made in house; host or cells: Escherichia coli BL21
T2 sequence (Q8R3Z5 101-272 isoform Q8R3Z5-4): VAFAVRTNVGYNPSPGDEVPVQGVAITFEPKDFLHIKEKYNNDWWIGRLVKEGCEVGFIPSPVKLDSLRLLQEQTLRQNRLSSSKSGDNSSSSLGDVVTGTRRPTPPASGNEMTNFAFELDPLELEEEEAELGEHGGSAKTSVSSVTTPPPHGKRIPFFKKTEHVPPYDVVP
Description: as §1
The β1a SH3 protein (residues V101-P272) was purified by IMAC (immobilized metal affinity chromatography) under denaturing conditions (6M guanidinium HCl) using Ni-NTA resin. The purity of the protein was assessed by SDS page gels (Supplementary Figure S1). The purified protein was then refolded by dialysing against buffer A, and the folded structure was checked by circular dichroism (Supplementary Figure S2). The purified and refolded protein was stored (−70 °C) at concentrations of ~1μM. It was not possible to directly assess the aggregation state of the β1a SH3 protein construct at 1μM as the SEC UV peak absorbance was below detectable levels.
as §2

[3] = biological target: α1s C (α1s II-III loop C region peptide, residues 720–765); test: Fluorescence binding of β isoforms and chimeras to α1s C peptide; conditions: β construct titrated with α1s C peptide
Description: as §1, with “The recombinant β-subunit proteins and the II-III loop were further purified by preparative electrophoresis using a Bio-Rad model 491 prep cell. The final samples were dialysed into a buffer containing 50 mM sodium phosphate pH 8 and 300 mM NaCl (buffer A) and stored at −70 °C.” left out
as §2

[4] = tested on: L-type Ca2+ current (DHPR channel) in β-null myotubes; test: L-type Ca2+ current, whole-cell patch clamp in cultured myotubes; assay type: cell-based, mouse; conditions: mean ± SE
Description: All animal procedures were carried out in accordance with the guidelines of Harvard Medical Area Standing Committee on Animals under experimental protocol number 2589, approved on 01 Sept 2014. Primary myoblasts from DHPRβ1a-null mouse skeletal muscles were isolated from the hindlimb of neonatal mice, as described elsewhere. Stably transduced cell lines were then obtained by infection of primary β-null myoblasts with virion particles carrying the β1a genes at a multiplicity of infection (MOI) of 0.5 and then selected with […] Puromycin for 2 weeks, as described previously. Cells expressing mouse Wtβ1a or β1a-loop chimera subunit were then grown and differentiated in 96-well plates, as described previously. Calcium imaging was performed 5–6 days after differentiation in myotubes loaded with 5μM Fura-2-AM or 2μM Fluo-4 (Molecular Probes) in imaging buffer (125 mM NaCl, 5 mM KCl, 2 mM CaCl2, 1.2 mM MgSO4, 6 mM glucose, and 25 mM HEPES-Tris, pH 7.4). Cell membrane depolarization was performed by 5s of perfusion with 5–7 volumes of imaging buffer containing increasing concentrations of KCl. To preserve osmolarity of the depolarization buffer, the increased K concentration was compensated with an equivalent reduction in total NaCl concentration. Sarcoplasmic reticulum Ca^2+ content of Fura-2-AM-loaded cultured myotubes was estimated from the peak fluorescent amplitude of the Ca^2+ transient induced by 40 mM caffeine stimulation in the presence of 1μM thapsigargin (Tg) and in the absence of extracellular Ca^2+ [34, 35]. Extracellular Ca^2+ entry at rest was estimated from the rate of dye quench by Mn^2+ entry in myotubes loaded with 5μM Fura-2-AM in the presence and in the absence of 10μM KB-R7943 (glycerol, 2-(2-(4-(4-nitrobenzyloxy) phenyl)ethyl)-isothiourea methane sulfonate), as described previously. Cells were then imaged at 360 nm (5 nm) with an intensified 10-bit digital CCD camera (XR-Mega-10, Stanford Photonics, Stanford, CA, USA) using aDG4 multiwavelength light source. Fura-2 images were acquired with a 40 objective (Olympus, UApo/340), and fluorescent emission at 510 nm was then captured from regions of interest within each myotube at 33 frames/s using Piper-controlled acquisition software (Stanford Photonics) and is expressed as the ratio of signal collected at alternating 340 nm/380 nm excitation wavelengths. […] Fluo-4 fluorescent images were acquired using a 60 objective, and emission at 510 nm was then collected from regions of interest from individual cells excited at 490 nm and is expressed as arbitrary fluorescent units.
The macroscopic Ca^2+ current was determined using the same equipment and protocols previously described (PMID: 29212769). […]

[5] = tested on: DHPRβ1a-null myotubes expressing β1a constructs; test: Depolarization (KCl)-induced Ca2+ release in Fura-2-loaded myotubes; assay type: cell-based, mouse; conditions: Fura-2-AM-loaded myotubes expressing the construct; sigmoidal dose–response fit
Description: All animal procedures were carried out in accordance with the guidelines of Harvard Medical Area Standing Committee on Animals under experimental protocol number 2589, approved on 01 Sept 2014. Primary myoblasts from DHPRβ1a-null mouse skeletal muscles were isolated from the hindlimb of neonatal mice, as described elsewhere. Stably transduced cell lines were then obtained by infection of primary β-null myoblasts with virion particles carrying the β1a genes at a multiplicity of infection (MOI) of 0.5 and then selected with […] Puromycin for 2 weeks, as described previously. Cells expressing mouse Wtβ1a or β1a-loop chimera subunit were then grown and differentiated in 96-well plates, as described previously. […] Fura-2 images were acquired with a 40 objective (Olympus, UApo/340), and fluorescent emission at 510 nm was then captured from regions of interest within each myotube at 33 frames/s using Piper-controlled acquisition software (Stanford Photonics) and is expressed as the ratio of signal collected at alternating 340 nm/380 nm excitation wavelengths. […] Fluo-4 fluorescent images were acquired using a 60 objective, and emission at 510 nm was then collected from regions of interest from individual cells excited at 490 nm and is expressed as arbitrary fluorescent units.

Row | Substance | Kd [1] [µM] | Kd [2] [µM] | further results
1 | KDPYPSADFPGDD [α1s C binding peptide 1 (sP1)] | 3.6 ± 0.2 | 2.6 ± 0.4 | 
2 | DEPEIPVSPRPRPLAEL [α1s C binding peptide 2 (sP2)] | 5.4 ± 0.9 | 3.8 ± 0.2 | 
3 | β1a: full-length mouse DHPR β1a subunit; recombinant or expressed in β-null myotubes |  |  | Kd [3]: 4.9 ± 0.6 µM; V1/2 ([4]; potential at which G = 1/2 Gmax, n = 22 / 21): 14.7 ± 0.88 mV; Vr ([4]; reversal potential, n = 22 / 21): 84.8 ± 0.35 mV; k ([4]; slope parameter, n = 22 / 21): 6.0 ± 0.17 mV; Gmax ([4]; β-null myotubes expressing the construct, external 10 mM CaCl2, n = 22 (Wt-β1a), n = 21 (β1a-RT loop)): 453 ± 33.0 pS/pF; EC50 [5]: 6680 ± 450 µM
4 | KDPYPSADTPGDD [sP1 F⟶T mutant] | 4.6 ± 0.4 | 4.6 ± 0.3 | 
5 | EEPEMPVGPRPRPLSEL [α1c C binding peptide 2 (cP2)] | 4.6 ± 0.3 | 3.6 ± 0.3 | 
6 | KDPYPSADFTGDD [sP1 P⟶T mutant] | 22 ± 2 | 19 ± 2 | 
7 | KDPYPSADFPGED [sP1 D⟶E mutant] | 15 ± 2 | 17 ± 1 | 
8 | LKVDEFESNVNEVKDPYPSADFPGDDEEDEPEIPVSPRPRPLAELQ [α1s II–III loop C region (α1s C)] |  | 3.6 ± 0.6 | 
9 | KDPYPSPDFPGDD [sP1 A⟶P mutant] | 4.5 ± 0.3 | 2.3 ± 0.2 | 
10 | KSPYPNPETTGEE [α1c C binding peptide 1 (cP1)] | 14 ± 2 | 19 ± 4 | 
11 | β2a: mouse DHPR β2a (cardiac isoform) subunit, recombinant |  |  | Kd for binding to α1s C [3]: no measurable binding
